From US20240343733A1, “COMPOUNDS FOR TARGETING DEGRADATION OF IRAK4 PROTEINS” (BIOGEN MA INC., priority 2021, published 2024)

biological target: T1, IRAK4 (Homo sapiens, UniProt Q9NWZ3); assay: IRAK4 Degradation Assay, HiBiT Method; type: cell-based; conditions: 293T cells expressing HiBiT-tagged IRAK4, 6 hours
T1 construct: 293Tcells expressing HiBiT-tagged IRAK4 were then added into 384-well plates
T1 sequence (Q9NWZ3 1-460): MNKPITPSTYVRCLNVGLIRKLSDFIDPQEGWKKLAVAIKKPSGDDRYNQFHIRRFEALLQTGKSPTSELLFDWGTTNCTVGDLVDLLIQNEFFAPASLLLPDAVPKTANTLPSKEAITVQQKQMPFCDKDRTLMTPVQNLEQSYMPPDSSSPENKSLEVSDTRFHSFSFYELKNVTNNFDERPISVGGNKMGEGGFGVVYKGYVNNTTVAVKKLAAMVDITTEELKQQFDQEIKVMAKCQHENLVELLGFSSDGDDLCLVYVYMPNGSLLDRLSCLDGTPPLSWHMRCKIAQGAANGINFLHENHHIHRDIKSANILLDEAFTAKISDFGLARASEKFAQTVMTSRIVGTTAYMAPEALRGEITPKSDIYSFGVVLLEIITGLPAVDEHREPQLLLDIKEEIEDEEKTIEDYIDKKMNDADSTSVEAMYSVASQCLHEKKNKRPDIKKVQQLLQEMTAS
Procedure: Assay 1. IRAK4 Degradation Assay, HiBiT Method
Selected compounds were tested in an IRAK4 degradation assay using the HiBiT Method.
Phenol red-free Dulbecco's modified Eagle medium (DMEM) and fetal bovine serum (FBS) were purchased from Gibco (Grand Island, NY, USA). The Nano-Glo® HiBiT Lytic Assay System was purchased from Promega (Madison, WI, USA). Cell culture flasks and 384-well microplates were acquired from VWR (Radnor, PA, USA). The 293Tcell line was engineered by knocking-in a HiBiT fusion tag into the C-terminal of the IRAK4 gene in 293T cells (Synthego, Redwood City, CA, USA).
IRAK4 degradation was measured via the quantification of luminescent signals using the Nano-Glo® HiBiT Lytic Assay kit. Test compounds were added to 384-well plates in duplicate using an 11-point half-log dilution series, with the highest dose set at […]. 293Tcells expressing HiBiT-tagged IRAK4 were then added into 384-well plates at a cell density of 10,000 cells per well. The plates were kept at 37° C. with 5% CO2 for 6 hours. Cells that were treated only with DMSO served as the negative control; wells that contained only assay media served as the background control. After the 6-hour incubation, Nano-Glo® HiBiT Lytic Assay reagents were added to the cells. Luminescence was acquired using an EnVision™ Multilabel Reader (PerkinElmer, Santa Clara, CA, USA).

Compound	DC50 [nM]
CC(C)Oc1cc2nn(C3CCN(C(=O)CN4CCC(c5ccc(C6CCC(=O)NC6=O)cc5)CC4)CC3)cc2cc1C(=O)Nc1cccc(C(F)F)n1 (centres unmarked) [Example 62, N-[6-(difluoromethyl)-2-pyridyl]-2-[1-[2-[4-[4-(2,6-dioxo-3-piperidyl)phenyl]-1-piperidyl]acetyl]-4-piperidyl]-6-isopropoxy-indazole-5-carboxamide]	< 10
CC(C)Oc1cc2nn(C3CCN(C(=O)CC4CCN(c5ncc(C6CCC(=O)NC6=O)cc5F)CC4)CC3)cc2cc1C(=O)Nc1cnn2cccnc12 (centres unmarked) [Example 148, 2-(1-(2-(1-(5-(2,6-dioxopiperidin-3-yl)-3-fluoropyridin-2-yl)piperidin-4-yl)acetyl)piperidin-4-yl)-6-isopropoxy-N-(pyrazolo[1,5-a]pyrimidin-3-yl)-2H-indazole-5-carboxamide]	10 to 100
CC(C)Oc1cc2nc(C3CCN(C(=O)CN4CCC(n5ccc(NC6CCC(=O)NC6=O)n5)CC4)CC3)cn2cc1C(=O)Nc1cccc(C(F)F)n1 (centres unmarked) [Example 83, N-[6-(difluoromethyl)-2-pyridyl]-2-[1-[2-[4-[3-[(2,6-dioxo-3-piperidyl)amino]pyrazol-1-yl]-1-piperidyl]acetyl]-4-piperidyl]-7-isopropoxy-imidazo[1,2-a]pyridine-6-carboxamide]	10 to 100
CC(C)Oc1cc2nn(C3CCN(C(=O)CN4CCC(c5ccc(C6CCC(=O)NC6=O)cc5F)CC4)CC3)cc2cc1C(=O)Nc1cccc(C(F)F)n1 (centres unmarked) [Example 63, N-(6-(difluoromethyl)pyridin-2-yl)-2-(1-(2-(4-(4-(2,6-dioxopiperidin-3-yl)-2-fluorophenyl)piperidin-1-yl)acetyl)piperidin-4-yl)-6-isopropoxy-2H-indazole-5-carboxamide]	10 to 100
CC(C)Oc1cc2nn([C@H]3CC[C@H](CN4CCC(c5cc6c(cc5F)c(N5CCC(=O)NC5=O)nn6C)CC4)CC3)cc2cc1C(=O)Nc1cccn(C2CC2)c1=O [Example 198, N-(1-cyclopropyl-2-oxo-1,2-dihydropyridin-3-yl)-2-((r,4r)-4-((4-(3-(2,4-dioxotetrahydropyrimidin-1(2H)-yl)-5-fluoro-1-methyl-1H-indazol-6-yl)piperidin-1-yl)methyl)cyclohexyl)-6-isopropoxy-2H-indazole-5-carboxamide]	< 10
CC(C)Oc1cc2nc([C@H]3CC[C@H](CN4CCC(c5ccc(NC6CCC(=O)NC6=O)cc5)C(F)(F)C4)CC3)cn2cc1C(=O)Nc1cccc(C(F)F)n1 (some centres unmarked) [Example 36, N-[6-(difluoromethyl)-2-pyridyl]-2-[4-[[4-[4-[(2,6-dioxo-3-piperidyl)amino]phenyl]-3,3-difluoro-1-piperidyl]methyl]cyclohexyl]-7-isopropoxy-imidazo[1,2-a]pyridine-6-carboxamide]	100 to 500
CC(C)Oc1cc2nc([C@H]3CC[C@H](CN4CC5(CCN(c6ncc(N7CCC(=O)NC7=O)cc6F)CC5)C4)CC3)cn2cc1C(=O)Nc1cnn2cccnc12 [Example 181, 2-((1r,4r)-4-((7-(5-(2,4-dioxotetrahydropyrimidin-1(2H)-yl)-3-fluoropyridin-2-yl)-2,7-diazaspiro[3.5]nonan-2-yl)methyl)cyclohexyl)-7-isopropoxy-N-(pyrazolo[1,5-a]pyrimidin-3-yl)imidazo[1,2-a]pyridine-6-carboxamide]	< 10
CC(C)Oc1cc2nc(C3CCN(CC(=O)N4CCC(c5cc(F)c(C6CCC(=O)NC6=O)cc5F)CC4)CC3)cn2cc1C(=O)Nc1cnn2cccnc12 (centres unmarked) [Example 100, 2-[1-[2-[4-[4-(2,6-dioxo-3-piperidyl)-2,5-difluoro-phenyl]-1-piperidyl]-2-oxo-ethyl]-4-piperidyl]-7-isopropoxy-N-pyrazolo[1,5-a]pyrimidin-3-yl-imidazo[1,2-a]pyridine-6-carboxamide]	10 to 100
CC(C)Oc1cc2nc(C3CCC(CN4CCC(c5ccc(NC6CCC(=O)NC6=O)cc5F)CC4)CC3)cn2cc1C(=O)Nc1cccc(C(F)(F)F)n1 (centres unmarked) [Example 1, 2-[4-[[4-[4-[(2,6-dioxo-3-piperidyl)amino]-2-fluoro-phenyl]-1-piperidyl]methyl]cyclohexyl]-7-isopropoxy-N-[6-(trifluoromethyl)-2-pyridyl]imidazo[1,2-a]pyridine-6-carboxamide]	100 to 500
CC(C)Oc1cc2nc(C3CCN(C(=O)NC4CCN(c5ccc(C6CCC(=O)NC6=O)cn5)CC4)CC3)cn2cc1C(=O)Nc1cnn2cccnc12 (centres unmarked) [Example 157, 2-[1-[[1-[5-(2,6-dioxo-3-piperidyl)-2-pyridyl]-4-piperidyl]carbamoyl]-4-piperidyl]-7-isopropoxy-N-pyrazolo[1,5-a]pyrimidin-3-yl-imidazo[1,2-a]pyridine-6-carboxamide]	< 10
CC(C)Oc1cc2nn(C3CCN(C(=O)CC4CCN(c5ncc(C6CCC(=O)NC6=O)cc5F)CC4)CC3)cc2cc1C(=O)Nc1cccn([C@H]2C[C@H]2F)c1=O (stereo partly drawn) [Example 151, 2-(1-(2-(1-(5-(2,6-dioxopiperidin-3-yl)-3-fluoropyridin-2-yl)piperidin-4-yl)acetyl)piperidin-4-yl)-N-(1-((1S,2R)-2-fluorocyclopropyl)-2-oxo-1,2-dihydropyridin-3-yl)-6-isopropoxy-2H-indazole-5-carboxamide]	< 10
CC(C)Oc1cc2nc([C@H]3CC[C@H](CN(C)C4CCN(Cc5cccc(NC6CCC(=O)NC6=O)c5)CC4)CC3)cn2cc1C(=O)Nc1cccc(C(F)F)n1 (some centres unmarked) [Example 34, N-[6-(difluoromethyl)-2-pyridyl]-2-[4-[[[1-[[3-[(2,6-dioxo-3-piperidyl)amino]phenyl]methyl]-4-piperidyl]-methyl-amino]methyl]cyclohexyl]-7-isopropoxy-imidazo[1,2-a]pyridine-6-carboxamide]	100 to 500
CC(C)Oc1cc2nc(C3CCN(C(=O)CC4CCN(c5ncc(C6CCC(=O)NC6=O)cc5F)CC4)CC3)cn2cc1C(=O)Nc1cccn([C@H]2C[C@H]2F)c1=O (stereo partly drawn) [Example 161, 2-(1-(2-(1-(5-(2,6-dioxopiperidin-3-yl)-3-fluoropyridin-2-yl)piperidin-4-yl)acetyl)piperidin-4-yl)-N-(1-((1S,2R)-2-fluorocyclopropyl)-2-oxo-1,2-dihydropyridin-3-yl)-7-isopropoxyimidazo[1,2-a]pyridine-6-carboxamide]	10 to 100
CC(C)Oc1cc2nc([C@H]3CC[C@H](CN4CCC(c5ccc6c(c5)n(C)c(=O)n6C5CCC(=O)NC5=O)CC4)CC3)cn2cc1C(=O)Nc1cccn(C2CC2)c1=O (some centres unmarked) [Example 167, N-(1-cyclopropyl-2-oxo-1,2-dihydropyridin-3-yl)-2-((1r,4r)-4-((4-(1-(2,6-dioxopiperidin-3-yl)-3-methyl-2-oxo-2,3-dihydro-1H-benzo[d]imidazol-5-yl)piperidin-1-yl)methyl)cyclohexyl)-7-isopropoxyimidazo[1,2-a]pyridine-6-carboxamide]	< 10
CC(C)Oc1cc2nc([C@H]3CC[C@H](CN4CCC(c5ccc6c(c5)n(C)c(=O)n6C5CCC(=O)NC5=O)CC4)CC3)cn2cc1C(=O)Nc1cccc(C(F)F)n1 (some centres unmarked) [Example 19, N-[6-(difluoromethyl)-2-pyridyl]-2-[4-[[4-[1-(2,6-dioxo-3-piperidyl)-3-methyl-2-oxo-benzimidazol-5-yl]-1-piperidyl]methyl]cyclohexyl]-7-isopropoxy-imidazo[1,2-a]pyridine-6-carboxamide]	< 10
CC(C)Oc1nc2nc(C3CCN(C(=O)CC4CCN(c5ncc(C6CCC(=O)NC6=O)cc5F)CC4)CC3)cn2cc1C(=O)Nc1cccn([C@H]2C[C@H]2F)c1=O (stereo partly drawn) [Example 186, 2-(1-(2-(1-(5-(2,6-dioxopiperidin-3-yl)-3-fluoropyridin-2-yl)piperidin-4-yl)acetyl)piperidin-4-yl)-N-(1-((1S,2R)-2-fluorocyclopropyl)-2-oxo-1,2-dihydropyridin-3-yl)-7-isopropoxyimidazo[1,2-a]pyrimidine-6-carboxamide]	< 10
CC(C)Oc1cc2nn(C3CCN(C(=O)CN4CCC(c5ccc(NC6CCC(=O)NC6=O)cc5F)CC4)CC3)cc2cc1C(=O)Nc1cccc(C(F)(F)F)n1 (centres unmarked) [Example 61, 2-[1-[2-[4-[4-[(2,6-dioxo-3-piperidyl)amino]-2-fluoro-phenyl]-1-piperidyl]acetyl]-4-piperidyl]-6-isopropoxy-N-[6-(trifluoromethyl)-2-pyridyl]indazole-5-carboxamide]	100 to 500
